Source: US8785457B2 (Cellzome Limited, priority 2009, dated 2014)
Where two headings read alike, the source gives them in different places.

Experiments:
Salmonella strain TA100 = tested on: Salmonella strain TA100
Procedure: (§1) Certain compounds of the invention were tested in a miniaturized screening version of the Ames test that requires a small amount of compound compared with the regulatory test. The Ames fluctuation assay is performed in 384-well plates using two Salmonella strains, TA98 and TA100. TA98 detects frameshifts and TA100 detects base substitutions leading to missense mutations. Whereas the original Ames test is carried out by plating bacteria onto selective agar plates, the Ames fluctuation assay is carried out in liquid culture using 384-well plates. The bacterial plates are incubated with the test compounds for 96 hours, after which bacterial growth is measured spectrophotometrically using a pH indicator that changes color in response to the acidification of the media due to bacterial growth.
(§2) Metabolic activation is achieved by using rat liver S9 fraction (0.2 mg/ml). To prevent false negatives due to bacteriocidal or bacteriostatic effects, a bacterial cytotoxicity assay is conducted in parallel with the Ames fluctuation assay. Compounds are typically tested in both bacterial strains with and without S9, at four concentrations (5, 10, 50 and 100 μM) with n=48 wells. A bacterial cytotoxicity test is conducted in parallel at 8 concentrations (with 100 μM as the highest concentration) and n=3 wells. Four reference compounds (quercetin, streptozotocin, aminoanthracene and mitomycin C) are included in all experiments.
(§3) The significance of the positive counts between the treatment (in the presence of compound) and the control (in the absence of test compound) are calculated using the one-tailed Fisher's exact test—the significance levels are reported as follows: • Weak positive, if 0.01≦p≦0.05, denoted as “+” • Strong positive, if 0.001≦p≦0.01, denoted as “++” • Very strong positive, if p<0.001, denoted as “+++” • Hyphens (−) indicate negative results

Salmonella strain TA98 = tested on: Salmonella strain TA98
Procedure: as §1, §2, §3

[1] = tested on: Salmonella strains, TA98 and TA100; settings: with rat liver S9 fraction
Source text: The Ames Salmonella/microsome mutagenicity assay (Salmonella test; Ames test) is a standard, short-term bacterial reverse mutation assay specifically designed to detect a wide range of chemical substances that can produce genetic damage leading to gene mutations. The test employs several histidine dependent Salmonella strains each carrying different mutations in various genes of the histidine operon (Mortelmans and Zeiger 2000, Mutation Research 455, 29-60). […]
Certain compounds of the invention were tested in a miniaturized screening version of the Ames test that requires a small amount of compound compared with the regulatory test. […] The bacterial plates are incubated with the test compounds for 96 hours, after which bacterial growth is measured spectrophotometrically using a pH indicator that changes color in response to the acidification of the media due to bacterial growth. […]
as §3

SMILES: CCOC(=O)N1Cc2nc(-c3ccc(N)cc3)nc(N3CCOC[C@@H]3C)c2C1 [Example 137]
- Ames fluctuation assay TA100 +S9 (Salmonella strain TA100; TA100, +S9, 5 μM): −
- Ames fluctuation assay TA100 +S9 (Salmonella strain TA100; TA100, +S9, 10 μM): −
- Ames fluctuation assay TA100 +S9 (Salmonella strain TA100; TA100, +S9, 50 μM): ++ (Strong positive, if 0.001≦p≦0.01, denoted as “++”)
- Ames fluctuation assay TA100 +S9 (Salmonella strain TA100; TA100, +S9, 100 μM): −
- Ames fluctuation assay TA98 +S9 (Salmonella strain TA98; TA98, +S9, 5 μM): +++ +++ +++ +++ (Very strong positive, if p<0.001, denoted as “+++”)
- Ames fluctuation assay TA98 +S9 (Salmonella strain TA98; TA98, +S9, 10 μM): +++ +++ +++ +++ (Very strong positive, if p<0.001, denoted as “+++”)
- Ames fluctuation assay TA98 +S9 (Salmonella strain TA98; TA98, +S9, 50 μM): +++ +++ +++ +++ (Very strong positive, if p<0.001, denoted as “+++”)
- Ames fluctuation assay TA98 +S9 (Salmonella strain TA98; TA98, +S9, 100 μM): +++ +++ +++ +++ (Very strong positive, if p<0.001, denoted as “+++”)

SMILES: CCOC(=O)N1Cc2nc(-c3ccc(N)c(F)c3)nc(N3CCOC[C@@H]3C)c2C1 [Intermediate 19]
- Ames fluctuation assay TA100 +S9 (Salmonella strain TA100; TA100, +S9, 5 μM): −
- Ames fluctuation assay TA100 +S9 (Salmonella strain TA100; TA100, +S9, 10 μM): +++ (Very strong positive, if p<0.001, denoted as “+++”)
- Ames fluctuation assay TA100 +S9 (Salmonella strain TA100; TA100, +S9, 50 μM): +++ (Very strong positive, if p<0.001, denoted as “+++”)
- Ames fluctuation assay TA100 +S9 (Salmonella strain TA100; TA100, +S9, 100 μM): +++ (Very strong positive, if p<0.001, denoted as “+++”)
- Ames fluctuation assay TA98 +S9 (Salmonella strain TA98; TA98, +S9, 5 μM): +++ +++ +++ +++ (Very strong positive, if p<0.001, denoted as “+++”)
- Ames fluctuation assay TA98 +S9 (Salmonella strain TA98; TA98, +S9, 10 μM): +++ +++ +++ +++ (Very strong positive, if p<0.001, denoted as “+++”)
- Ames fluctuation assay TA98 +S9 (Salmonella strain TA98; TA98, +S9, 50 μM): +++ +++ +++ +++ (Very strong positive, if p<0.001, denoted as “+++”)
- Ames fluctuation assay TA98 +S9 (Salmonella strain TA98; TA98, +S9, 100 μM): +++ +++ +++ +++ (Very strong positive, if p<0.001, denoted as “+++”)

SMILES: CCOC(=O)N1Cc2nc(-c3ccc(N)cc3)nc(N3CCOC[C@@H]3C)c2C1 [Metabolite Example 137, (S)-ethyl 2-(4-aminophenyl)-4-(3-methylmorpholino)-5H-pyrrolo[3,4-d]pyrimidine-6(7H)-carboxylate]
- Ames assay result [1]: Ames positive
